The values below come from patent US10793568B2, “Hormone receptor modulators for treating metabolic conditions and disorders” (ARDELYX, INC., priority 2016, dated 2020).

Assay [1] concerns the target ligand binding domain of human FXR (Homo sapiens (Human), UniProt Q96RI1). The assay can be described thus: FXR ligand binding assay (LanthaScreen TR-FRET, SRC2-2 peptide recruitment). The note with it: for pEC50: -log EC50, concentration required to produce 50% activation; for Emax: read-out: % Efficacy. (Time-resolved FRET reads energy transfer from a long-lived donor to a nearby acceptor.)

In assay [2] the target is human Farnesoid X receptor ligand-binding domain/Gal4 DNA binding domain chimera (Homo sapiens (Human), UniProt Q96RI1). The assay can be described thus: Cell-based assay of FXR activation (FXR-UAS-bla HEK 293T beta-lactamase reporter). The settings on record: cellular FXR beta-lactamase reporter assay; for Emax: HEK-293T, extent of activation relative to GW4064, read-out: % Efficacy; for EC50: FXR-UAS-bla HEK 293T cells, 16 h, pEC50 = -log EC50. A digest of the protocol:
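Readout is cleavage of the CCF4 FRET substrate (409 nm excitation, blue 447 nm signal) by beta-lactamase, expressed under UAS control after a Gal4–human FXR LBD chimera is activated in HEK 293T cells. Compounds were added as 3-fold dilutions for 16 h at 37 °C in 2% charcoal-stripped FBS medium. Curves were fit to a 3-parameter logistic equation to give pEC50, with % activation relative to GW4064.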
(In general: A reporter such as luciferase makes a cellular process visible.)

Setting [3] is: extent of activation relative to GW4064.

Read-outs that look alike come from different tables or passages of the source.

Sequence of ligand binding domain of human FXR (Q96RI1 262-486): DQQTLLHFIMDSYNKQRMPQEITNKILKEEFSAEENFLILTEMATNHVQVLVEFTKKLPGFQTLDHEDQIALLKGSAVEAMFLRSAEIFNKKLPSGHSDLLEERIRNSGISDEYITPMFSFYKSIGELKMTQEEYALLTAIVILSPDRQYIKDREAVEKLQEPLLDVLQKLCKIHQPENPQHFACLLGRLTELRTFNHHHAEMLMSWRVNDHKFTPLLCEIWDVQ
Sequence of human Farnesoid X receptor ligand-binding domain/Gal4 DNA binding domain chimera (Q96RI1 262-486, change not shown): as the sequence (Q96RI1 262-486) above
Sequence of human Farnesoid X receptor ligand-binding domain/Gal4 DNA binding domain chimera (P04386 1-147 partner): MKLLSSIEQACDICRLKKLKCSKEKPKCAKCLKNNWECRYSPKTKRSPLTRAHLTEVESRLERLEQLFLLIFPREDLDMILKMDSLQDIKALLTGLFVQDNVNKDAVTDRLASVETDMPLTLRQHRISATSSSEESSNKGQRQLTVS

Take `O=C(O)c1cc(F)c2nc(N3C[C@@H]4C[C@H](OC(=O)c5c(-c6c(Cl)cccc6Cl)noc5C5CC5)[C@H]3C4)sc2c1` [Compound I-64, 2-[(1R,4S,6S)-6-[5-cyclopropyl-3-(2,6-dichlorophenyl)-1,2-oxazole-4-carbonyloxy]-2-azabicyclo[2.2.1]heptan-2-yl]-4-fluoro-1,3-benzothiazole-6-carboxylic Acid]: the pEC50 (as a rule, −log10 of the EC50, conventionally taken in molar units) in assay [1] was over 4.5. In assay [2], the Emax turned out to be 55% and a half-maximal effect (EC50) was put at 501 nM.

In the case of `O=C(O)c1cc(F)c2nc(N3C[C@H]4C[C@@H]3[C@H](OCc3c(-c5c(Cl)cccc5Cl)noc3C3CC3)C4)sc2c1` [Compound I-65, 2-[(1R,4S,6R)-6-{[5-cyclopropyl-3-(2,6-dichlorophenyl)-1,2-oxazol-4-yl]methoxy}-2-azabicyclo[2.2.1]heptan-2-yl]-4-fluoro-1,3-benzothiazole-6-carboxylic Acid], in assay [1], the pEC50 worked out at 6.9 and the Emax came to 45%. Further, in assay [2], the Emax stood at 52% and the EC50 (in general, the concentration needed to bring the measured effect to its halfway point) is 100 nM.

In assay [1], `N#Cc1cc(N2C[C@@H]3C[C@H]2C[C@H]3OCc2c(-c3c(Cl)cccc3Cl)noc2C2CC2)ccc1C(=O)O` [Compound I-101, 2-Cyano-4-[(1S,4S,5R)-5-{[5-cyclopropyl-3-(2,6-dichlorophenyl)-1,2-oxazol-4-yl]methoxy}-2-azabicyclo[2.2.1]heptan-2-yl]benzoic Acid] registered a pEC50 of 9.8. Further, the Emax in assay [1] (setting [3]) came to 137%. In assay [2], the Emax was determined as 113% and the EC50 is 1 nM.

In assay [1], `N#Cc1cc(C(=O)O)ccc1N1C[C@@H]2C[C@H]1C[C@H]2OCc1c(-c2c(Cl)cccc2Cl)noc1C1CC1` [Compound I-102, 3-cyano-4-[(1S,4S,5R)-5-{[5-cyclopropyl-3-(2,6-dichlorophenyl)-1,2-oxazol-4-yl]methoxy}-2-azabicyclo[2.2.1]heptan-2-yl]benzoic Acid] showed a pEC50 of 8.6. Moreover, the Emax in assay [1] (setting [3]) was 112%. For the same compound, in assay [2], the Emax worked out at 106% and the EC50 was 0.794 nM.

Consider `O=C(O)c1ccc(N2C[C@@H]3C[C@H]2C[C@H]3OCc2c(-c3c(Cl)cccc3Cl)noc2C2CC2)cc1F` [Compound I-103, 4-[(1S,4S,5R)-5-{[5-cyclopropyl-3-(2,6-dichlorophenyl)-1,2-oxazol-4-yl]methoxy}-2-azabicyclo[2.2.1]heptan-2-yl]-2-fluorobenzoic Acid], for which the pEC50 in assay [1] is 8.7. Also, the Emax in assay [1] (setting [3]) was 135%. In addition, in assay [2], the Emax is 103% and the EC50 is 0.794 nM.

As for `O=C(O)c1c(F)cc(N2C[C@@H]3C[C@H]2C[C@H]3OCc2c(-c3c(Cl)cccc3Cl)noc2C2CC2)cc1F` [Compound I-104, 4-[(1S,4S,5R)-5-{[5-cyclopropyl-3-(2,6-dichlorophenyl)-1,2-oxazol-4-yl]methoxy}-2-azabicyclo[2.2.1]heptan-2-yl]-2,6-difluorobenzoic Acid], the negative-log EC50 (pEC50) in assay [1] was found to be 9.4. For the same compound, the Emax in assay [1] (setting [3]) was found to be 156%. Further, in assay [2], the Emax was found to be 104% and the EC50 was 3.16 nM.

For the compound `O=C(O)c1cc(F)c(N2C[C@@H]3C[C@H]2C[C@H]3OCc2c(-c3c(Cl)cccc3Cl)noc2C2CC2)cc1F` [Compound I-105, 4-[(1S,4S,5R)-5-{[5-cyclopropyl-3-(2,6-dichlorophenyl)-1,2-oxazol-4-yl]methoxy}-2-azabicyclo[2.2.1]heptan-2-yl]-2,5-difluorobenzoic Acid], the pEC50 in assay [1] came out at 9.4. Also, in assay [1] (setting [3]), the Emax was 142%. For the same compound, in assay [2], the Emax was 112% and it took 1.26 nM to reach a half-maximal effect (EC50).

`O=C(O)c1ccc(N2C[C@@H]3C[C@H]2C[C@H]3OCc2c(-c3c(Cl)cccc3Cl)noc2C2CC2)c(C(F)(F)F)c1` [Compound I-106, 4-((1S,4S,5R)-5-((5-cyclopropyl-3-(2,6-dichlorophenyl)isoxazol-4-yl)methoxy)-2-azabicyclo[2.2.1]heptan-2-yl)-3-(trifluoromethyl)benzoic acid] showed a pEC50 in assay [1] of 8.6. Further, the Emax in assay [1] (setting [3]) was found to be 126%. Also, in assay [2], the Emax is 106% and the EC50 was 0.631 nM.

For the compound `Cc1cc(C(=O)O)ccc1N1C[C@@H]2C[C@H]1C[C@H]2OCc1c(-c2c(Cl)cccc2Cl)noc1C1CC1` [Compound I-107, 4-((1S,4S,5R)-5-((5-cyclopropyl-3-(2,6-dichlorophenyl)isoxazol-4-yl)methoxy)-2-azabicyclo[2.2.1]heptan-2-yl)-3-methylbenzoic acid], the pEC50 in assay [1] is on record as 8.6. Moreover, the figures for the Emax in assay [1] (setting [3]) and in assay [2] were 122% and 102%, respectively. Further, in assay [2], the EC50 was 1 nM.

As for `O=C(O)c1ccc(N2C[C@@H]3C[C@H]2C[C@H]3OCc2c(-c3c(Cl)cccc3Cl)noc2C2CC2)c(C2CC2)c1` [Compound I-108, 3-cyclopropyl-4-((1S,4S,5R)-5-((5-cyclopropyl-3-(2,6-dichlorophenyl)isoxazol-4-yl)methoxy)-2-azabicyclo[2.2.1]heptan-2-yl)benzoic acid], the pEC50 in assay [1] is listed as 9.1. Also, in assay [1] (setting [3]), the Emax worked out at 117%. Also, in assay [2], the Emax came to 101% and the EC50 was 3.98 nM.

On to `CCc1cc(C(=O)O)ccc1N1C[C@@H]2C[C@H]1C[C@H]2OCc1c(-c2c(Cl)cccc2Cl)noc1C1CC1` [Compound I-109, 4-((1S,4S,5R)-5-((5-cyclopropyl-3-(2,6-dichlorophenyl)isoxazol-4-yl)methoxy)-2-azabicyclo[2.2.1]heptan-2-yl)-3-ethylbenzoic acid], for which the pEC50 in assay [1] came out at 9.4. In addition, the Emax in assay [1] (setting [3]) was determined as 117%; in assay [2], 100%. This compound also showed an EC50 in assay [2] of 1.58 nM.

For the compound `O=C(O)c1ccc(N2C[C@@H]3C[C@H]2C[C@H]3OCc2c(-c3c(Cl)cccc3Cl)noc2C2CC2)c(F)c1F` [Compound I-110, 4-((1S,4S,5R)-5-((5-cyclopropyl-3-(2,6-dichlorophenyl)isoxazol-4-yl)methoxy)-2-azabicyclo[2.2.1]heptan-2-yl)-2,3-difluorobenzoic acid], the pEC50 in assay [1] is 10. The Emax in assay [1] (setting [3]) turned out to be 132%. Moreover, in assay [2], the Emax worked out at 111% and the concentration giving a half-maximal response (EC50) is 1 nM.

Take `Cc1cc(N2C[C@@H]3C[C@H]2C[C@H]3OCc2c(-c3c(Cl)cccc3Cl)noc2C2CC2)ccc1C(=O)O` [Compound I-111, 4-((1S,4S,5R)-5-((5-cyclopropyl-3-(2,6-dichlorophenyl)isoxazol-4-yl)methoxy)-2-azabicyclo[2.2.1]heptan-2-yl)-2-methylbenzoic acid]: the pEC50 in assay [1] was determined as 9.3. The Emax in assay [1] (setting [3]) stood at 132%; in assay [2], 100%. Moreover, the EC50 in assay [2] was 1.26 nM.

As for `COc1cc(N2C[C@@H]3C[C@H]2C[C@H]3OCc2c(-c3c(Cl)cccc3Cl)noc2C2CC2)ccc1C(=O)O` [Compound I-112, 4-((1S,4S,5R)-5-((5-cyclopropyl-3-(2,6-dichlorophenyl)isoxazol-4-yl)methoxy)-2-azabicyclo[2.2.1]heptan-2-yl)-2-methoxybenzoic acid], the pEC50 in assay [1] was 9.4. The Emax in assay [1] (setting [3]) came to 116%. Further, in assay [2], the Emax was 100% and a half-maximal effect (EC50) was put at 5.01 nM.

`Cc1cccc(Cl)c1-c1noc(C2CC2)c1CO[C@@H]1C[C@@H]2C[C@H]1CN2c1ccc(C(=O)O)cc1F` [Compound I-113, 4-[(1S,4S,5R)-5-[[3-(2-chloro-6-methylphenyl)-5-cyclopropyl-1,2-oxazol-4-yl]methoxy]-2-azabicyclo[2.2.1]heptan-2-yl]-3-fluorobenzoic acid] came in with a pEC50 in assay [1] of 8.8. In addition, the Emax in assay [1] (setting [3]) turned out to be 126%. In assay [2], the Emax came to 101% and the EC50 was 0.794 nM.

As for `Cc1cccc(Cl)c1-c1noc(C2CC2)c1CO[C@@H]1C[C@@H]2C[C@H]1CN2c1ccc(C(=O)O)cc1` [Compound I-114, 4-[(1S,4S,5R)-5-{[3-(2-chloro-6-methylphenyl)-5-cyclopropyl-1,2-oxazol-4-yl]methoxy}-2-azabicyclo[2.2.1]heptan-2-yl]-benzoic Acid], the Emax in assay [1] (setting [3]) amounted to 124%. Further, in assay [2], the Emax was determined as 103% and it took 2.51 nM to reach a half-maximal effect (EC50).

Consider `Cc1cccc(Cl)c1-c1noc(C2CC2)c1CO[C@@H]1C[C@@H]2C[C@H]1CN2c1ccc(C(=O)O)c(F)c1` [Compound I-115, 4-[(1S,4S,5R)-5-{[3-(2-chloro-6-methylphenyl)-5-cyclopropyl-1,2-oxazol-4-yl]methoxy}-2-azabicyclo[2.2.1]heptan-2-yl]-2-fluorobenzoic Acid], for which the pEC50 in assay [1] amounted to 9.6. Besides, the Emax in assay [1] (setting [3]) was 144%; in assay [2], 108%. The compound further showed an EC50 in assay [2] of 2 nM.

Regarding `Cc1cccc(C)c1-c1noc(C2CC2)c1CO[C@@H]1C[C@@H]2C[C@H]1CN2c1ccc(C(=O)O)cc1F` [Compound I-116, 4-[(1S,4S,5R)-5-{[5-cyclopropyl-3-(2,6-dimethylphenyl)-1,2-oxazol-4-yl]methoxy}-2-azabicyclo[2.2.1]heptan-2-yl]-3-fluorobenzoic Acid], the pEC50 in assay [1] worked out at 8.6. For the same compound, the Emax in assay [1] (setting [3]) was determined as 131%; in assay [2], 102%. The EC50 in assay [2] was 3.98 nM.

Consider `Cc1cccc(C)c1-c1noc(C2CC2)c1CO[C@@H]1C[C@@H]2C[C@H]1CN2c1ccc(C(=O)O)cc1` [Compound I-117, 4-[(1S,4S,5R)-5-{[5-cyclopropyl-3-(2,6-dimethylphenyl)-1,2-oxazol-4-yl]methoxy}-2-azabicyclo[2.2.1]heptan-2-yl]benzoic Acid], for which the pEC50 in assay [1] came out at 8.2. For the same compound, the Emax in assay [1] (setting [3]) is 113%. For the same compound, in assay [2], the Emax was 100% and the response was half-maximal at 7.94 nM (EC50).
